Measured values published in patent US8409550B2, “Method for treating skin with retinoids and retinoid boosters” (Unilever Home & Personal Care, USA, Division of Conopco, …, priority 2000, dated 2013).
Where “and” joins values, the source holds several entries; their conditions need not be identical. Equal values may be shown once. Read-outs that look alike come from different tables or passages of the source. Values belong to the compound of their own block, whether it stands above or below them.

How the values were obtained:
[1] = biological target: T1, LRAT (Bos taurus, UniProt Q9BGL2); experiment: Assay for LRAT activity, bovine RPE microsomes (to identify B1); assay type: biochemical; conditions: for % Inhibition LRAT (100 jm): compound 100 jm; for % Inhibition LRAT (10 jm): compound 10 jm
T1 construct: followed by approximately 15 μg of RPE microsomal protein; tissue W. L. Lawson Co., Lincoln, Nebr., USA (eyecups); host or cells: bovine retinal pigment epithelium microsomes
T1 sequence (Q9BGL2 1-230): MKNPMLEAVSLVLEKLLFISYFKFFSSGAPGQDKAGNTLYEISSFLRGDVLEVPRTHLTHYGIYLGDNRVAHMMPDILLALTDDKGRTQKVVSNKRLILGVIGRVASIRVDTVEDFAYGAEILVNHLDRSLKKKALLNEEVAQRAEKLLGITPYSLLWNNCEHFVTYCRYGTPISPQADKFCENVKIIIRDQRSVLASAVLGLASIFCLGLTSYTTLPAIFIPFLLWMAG

[2] = system: ARAT; experiment: Assay for ARAT activity, bovine RPE microsomes (to identify B1); assay type: biochemical; conditions: for % Inhibition ARAT (100 jm): compound 100 jm; for % Inhibition ARAT (10 jm): compound 10 jm
[3] = biological target: transglutaminase (TGase I); experiment: Transglutaminase (Tgase) ELISA assay in cultured keratinocytes with retinol and boosters; assay type: cell-based, human; conditions: for TG as % C, Compd 3: Compound 3 alone; for TG as % C, Compd 3 / TG as % C Compd 2 / TG as % C Compd 1: concentration one log below IC20; for IC20: IC20 (80% of control); for Tgase levels (Mean): with 10^-7 M retinol
[4] = system: cytochrome P450 dependent retinoic acid oxidation; experiment: Assay for NADPH dependent retinoic acid oxidation, rat liver microsomes (to identify B5); conditions: for % Inhibition Retinoic Acid (10 μM): compound 10 μM; for % Inhibition Retinoic Acid (100 μM): compound 100 μM
[5] = system: Retinal Reductase; experiment: Assay for retinal reductase activity, rat liver microsomes (to identify B3); assay type: biochemical; conditions: test compound final 100 μM
[6] = system: Retinol Dehydrogenase; experiment: Assay for retinol dehydrogenase activity, rat liver microsomes (to identify B2); assay type: biochemical; conditions: test compound final 100 μM
Description: 2.2 Isolation of Rat Liver Microsomes (4)
The resulting homogenate was successively centrifuged for 30 min. at 10,000 g, 30 min. at 20,000 g, and 15 min. at 30,000 g, and the resulting supernatant was ultra-centrifuged for 80 min. at 105,000 g. […] Protein concentrations were determined as described above.
2.4 Assay for Retinol Dehydrogenase Activity (to Identify B2)
The following stock solutions were prepared:
50 mM KH2PO4, pH 7.4 buffer, sterile filtered.
10 mM all trans Retinol (Sigma 87632) in DMSO.
200 mM Nicotinamide adenine dinucleotide phosphate, sodium salt (NADP) (Sigma N0505) in sterile water.
40 mM test compound in appropriate solvent (water, buffer, ethanol, chloroform or DMSO).
1:10 dilution of rat liver Microsomes in 50 mM KH2PO4, pH 7.4 buffer (4 μg/μl).
In a two-dram glass vial with screw cap, the following were added in order:
Buffer to give a final volume of 400 μl
25 μl diluted Microsomes (final=100 μg)—boiled Microsomes were used for controls and regular Microsomes for test samples.
4 μl of 200 mM NADP (final=2 mM)
1 μl of 40 mM test compound (final=100 μM)
8 μl of 10 mM retinol (final=200 μM)
The vials were incubated in a 37° C. shaking water bath for 45 minutes. 500 μl ice-cold ethanol was added to each vial to quench the reaction. The retinoids were extracted twice with ice cold hexane (2.7 ml per extraction). […]

[7] = B1 table, booster concentration which with 10^−7 M retinol inhibits TGase by 50%, same values in the 19th table (Molar), read-out: Overall TG (IC 50)
[8] = in the presence of 10^-7M retinol
[9] = compound tested individually in the presence of 10^-7 M retinol
[10] = Tgase inhibition, compound tested individually in the presence of 10^-7 M retinol, read-out: IC50
[11] = Compound 2 alone, in the presence of 10^-7M retinol

% Inhibition LRAT (100 jm) [1]: 58% +/− 2
Compound: Glycerol-PCA-Oleate
% Inhibition ARAT (100 jm) [2]: 41% +/− 6

% Inhibition LRAT (10 jm) [1]: 10% +/− 10 | % Inhibition LRAT (100 jm) [1]: 50% +/− 18 | IC50 [3, 7]: 6.78 µM | TG as % C, Compd 3 [3, 8]: 99 % C | IC20 [3, 9]: 5.15 µM | IC50 [3, 10]: 6.78 µM
Compound: Acetyl Sphingosine
% Inhibition ARAT (10 jm) [2]: 19% +/− 12 | % Inhibition ARAT (100 jm) [2]: 62% +/− 11

% Inhibition Retinoic Acid (10 μM) [4]: 88% | % Inhibition Retinoic Acid (100 μM) [4]: 100%
Compound: Clc1ccc(COC(Cn2ccnc2)c2ccc(Cl)cc2Cl)cc1 (stereo not shown) [Econazole]

Compound: CC(=O)N1CCN(c2ccc(OCC3COC(Cn4ccnc4)(c4ccc(Cl)cc4Cl)O3)cc2)CC1 (stereo not shown) [Ketoconazole, reference compound]
TG as % C Compd 2 [3, 11]: 85 % C | IC20 [3, 9]: 0.0552 µM | % Inhibition Retinoic Acid (10 μM) [4]: 84% | % Inhibition Retinoic Acid (100 μM) [4]: 84%

% Inhibition LRAT (100 jm) [1]: 37% +/− 9 | IC50 [3, 7]: 99.9 µM | TG as % C Compd 1 ([3]; Compound 1 alone, in the presence of 10^-7M retinol): 104 % C | IC20 [3, 9]: 69.4 µM | IC50 [3, 10]: 99.9 µM
Compound: Hexanoyl Sphingosine
TG as % C Compd 1 ([3]; compound 1 alone, with retinol): 122 % C and 99.3 % C and 99 % C and 109 % C

% Inhibition LRAT (100 jm) [1]: 34%
Compound: Cocoyl Monoethanolamide
% Inhibition ARAT (100 jm) [2]: 13%

IC50 [3, 10]: 8.64 µM | % Inhibition Retinal Reductase [5]: 38% +/− 1
Compound: CC1(C)[C@@H](O)CC[C@]2(C)[C@H]3C(=O)C=C4[C@@H]5C[C@@](C)(C(=O)O)CC[C@]5(C)CC[C@@]4(C)[C@]3(C)CC[C@@H]12 [Glycyrretinic Acid, Glycyrrhetinic Acid]
TG as % C Compd 2 [3, 11]: 91 % C | TG as % C, Compd 3 [3, 8]: 91 % C | IC20 [3, 9]: 5.96 µM | TG as % C Compd 2 ([3]; compound 2 alone, with retinol): 92 % C

% Inhibition Retinal Reductase [5]: 6%
Compound: COc1cc(C=O)ccc1O [Vanillin]
TG as % C, Compd 3 [3, 8]: 134 % C | IC20 [3, 9]: 8470 µM

% Inhibition LRAT (100 jm) [1]: 43%
Compound: Santanol
% Inhibition ARAT (100 jm) [2]: 15%

% Inhibition LRAT (10 jm) [1]: 0% | % Inhibition LRAT (100 jm) [1]: 17% +/− 17
Compound: CCCCCCCC(=O)OCC(COP(=O)(O)OCCN)OC(=O)CCCCCCC (stereo not shown) [Dioctylphosphatidyl Ethanolamine]
% Inhibition ARAT (10 jm) [2]: 23%

% Inhibition LRAT (100 jm) [1]: 75%
Compound: Brahmanol
% Inhibition ARAT (100 jm) [2]: 70%

% Inhibition LRAT (100 jm) [1]: 45%
Compound: Isobutyl Ionone
% Inhibition ARAT (100 jm) [2]: 8%

% Increase Retinol Dehydrogenase [6]: 26% increase | TG as % C, Compd 3 [3, 8]: 60 % C | Tgase levels (Mean) ([3]; booster 1.0E−05 Molar): 77.8 % of control | Tgase levels (Mean) ([3]; booster 1.1E−06 Molar): 98.8 % of control | Tgase levels (Mean) ([3]; booster 1.23E−07 Molar): 70.0 % of control | Tgase levels (Mean) ([3]; booster 1.65E−09 Molar): 68.4 % of control | Tgase levels (Mean) ([3]; booster 3.0E−05 Molar): 45 % of control | Tgase levels (Mean) ([3]; booster 3.29E−10 Molar): 69.2 % of control | Tgase levels (Mean) ([3]; booster 3.33E−06 Molar): 76.4 % of control | Tgase levels (Mean) ([3]; booster 3.73E−07 Molar): 91.6 % of control | Tgase levels (Mean) ([3]; booster 4.10E−08 Molar): 74.6 % of control | Tgase levels (Mean) ([3]; booster 8.2E−08 Molar): 115.2 % of control | TG as % C Compd 2 ([3]; compound 2 alone, with retinol): 84 % C and 98 % C
Compound: Sphingomyelin

Compound: CCCCC/C=C\C/C=C\C/C=C\C/C=C\CCCC(=O)O [Arachidonic Acid]
% Inhibition Retinal Reductase [5]: 49%

Compound: CC(C)(C)C(=O)C(Oc1ccc(Cl)cc1)n1ccnc1 (stereo not shown) [Climbazole, reference compound]
TG as % C Compd 2 [3, 11]: 84 % C | TG as % C, Compd 3 [3, 8]: 84 % C | IC20 [3, 9]: 0.245 µM | % Inhibition Retinoic Acid (10 μM) [4]: 80% | % Inhibition Retinoic Acid (100 μM) [4]: 92%

Compound: O=c1c(O)c(-c2ccc(O)c(O)c2)oc2cc(O)cc(O)c12 [Quercetin]
TG as % C, Compd 3 [3, 8]: 92 % C | IC20 [3, 9]: 51.1 µM | % Inhibition Retinoic Acid (10 μM) [4]: 40% | % Inhibition Retinoic Acid (100 μM) [4]: 74%

% Inhibition LRAT (100 jm) [1]: 16%
Compound: Isocyclogeraniol
% Inhibition ARAT (100 jm) [2]: 18%
